Data taken from patent US20150141375A1 (priority 2009, published 2015).
Where “and” joins values, the source holds several entries; their conditions need not be identical. Identical values can stand only once. Like-named read-outs stand apart in the source and are kept apart here.

Experiments:
HCMV(AD169) = experiment: In vitro potency against dsDNA viruses: HCMV; assay type: cell-based
HHV-6 = experiment: In vitro potency against dsDNA viruses: HHV-6; assay type: cell-based
Adenovirus [1] = experiment: In vitro activity against Adenovirus (HFF; AdV 5); assay type: cell-based
HPV 11 = experiment: In vitro potency against dsDNA viruses: HPV 11; assay type: cell-based
BK Virus = experiment: BK virus replication in RPTECs, viral DNA by qPCR after 5 days; assay type: cell-based; conditions: Betapolyomavirus hominis, RPTEC
Experimental: To test the ability of CMX001 to inhibit replication of BK virus, stocks of BK virus were prepared in HFF cells and dilutions of the virus stocks were used to infect primary human renal tubular epithelial cells (RPTECs). Drug dilutions were then added to the wells containing the infected cells and the plates were incubated for 5 days. Total DNA was prepared from the plates and viral DNA was quantified by qPCR.

JCV (Mad-4) = JCV (Mad-4) replication in COS-7 cells (qPCR, immunofluorescence); assay type: cell-based, JC virus
HSV-1 = experiment: microbe, parasite or virus in culture; assay type: cell-based
[2] = SVG cell viability / cell number (MTS, alamar blue, hematoxylin); assay type: cell-based, human; conditions: human; for cytotoxicity at 1 μM: read-out: reduction in viability (MTS)
Experimental: (§1) Quantification of cell viability using the MTS [3-(4,5-dimethylthiazol-2-yl)-5-(3-carboxymethoxyphenyl)-2-(4-sulfophenyl)-2H-tetrazolium] assay is based on bioactivity of mitochondrial dehydrogenase in living cells, which converts colorless tetrazolium salt to a colored formazan. MTS assays were performed according to manufacturer's instructions (Promega, Madison Wis.). Briefly, culture medium was removed from cells and 50 μL of PBS was added into each well of a 96 well plate. Ten μL of MTS reagent were added to wells of cells, and to a well without cells to determine background. Mixtures were incubated at 37° C. for 2 hours and the absorbance was measured at 490 nm. Trypan blue staining was performed on identical cultures to correlate MTS values with cell viability. The final values indicated are the result from 3 replicates. The value for the non-treated control was set to 100% and all other values are represented as a percentage of the control. Alamar blue (AB) assay.
(§2) Quantification of cell viability using the alamar blue (AB) assay was performed according to the manufacturer's instructions (Invitrogen, Gaithersburg, Md.). Briefly, 10 μL of AB reagent was added to each well of a 96 well dish containing cells or without cells to determine background. Mixtures were incubated at 37° C. for 6 hours and the absorbance measured at 570 nm using 600 nm as a reference wavelength. The value for the non-treated control was set to 100% and all other values are represented as a percentage of the control.
(§3) Because cell density in cultures processed for in situ DNA hybridization could not be measured by MTS or AB assays, cell density was approximated in cell cultures processed by quantifying hematoxylin staining intensity. Coverslips containing cells were prepared for in situ DNA hybridization and co-stained with hematoxylin. Subsequently, each coverslip was scanned and the hematoxylin intensities quantified using ImageJ. To determine the total cell number per coverslip, images were acquired at 10 random positions at 100× magnification. Cells were counted throughout each image and the average cell number per slide was generated by averaging counts from the 10 images for each experimental group. Exactly 900 images at 100× magnification cover the surface of an 18 mm×18 mm coverslip.

SVG cells = experiment: as above; assay type: cell-based, human
Experimental: as §1, §2, §3

[3] = Clearance and organ distribution in mouse; assay type: in vivo; conditions: oral 5 mg/kg [C2-14C]CMX001, four hours
[4] = Single-dose, dose-escalation study in healthy adult volunteers; assay type: in vivo, human
Experimental: A randomized double-blind, placebo-controlled, single-dose, dose-escalation study of CMX001 in healthy adult volunteers was conducted.
Nine single dose cohorts-CMX001:placebo (2:1)
Six subjects per cohort; 36 received CMX001; 18 received placebo
Highest dose was 2 mg/kg (140 mg in a 70 kg person)
Six multiple dose cohorts-CMX001:placebo (2:1) (3 doses over 3 weeks)
Five subjects per cohort; 20 received CMX001; 10 received placebo

[5] = 3-way crossover bioavailability / food effect study in healthy volunteers; assay type: in vivo, human
Experimental: An open-label, 3-way crossover study in healthy volunteers comparing the bioavailability of CMX001 tablet versus solution formulation and the effect of food on CMX001 pharmacokinetics was completed. 24 healthy volunteers received 40 mg tablets (fed), 40 mg tablets (fasted), and 40 mg as a solution (fasted). […] Exposure as indicated by AUC was unchanged.

[6] = assay type: in vivo, human; conditions: individual patients
Adenovirus [7] = experiment: Adenovirus IC50s for CMX001, serotypes/isolates; assay type: cell-based
[8] = human, oral, CMX001 2 mg/kg single dose, plasma, Mean

CCCCCCCCCCCCCCCCOCCCOP(=O)(O)CO[C@H](CO)Cn1ccc(N)nc1=O [CMX001, Hexadecyloxypropyl-cidofovir]
Enhanced Activity (HCMV(AD169); CMX001 versus cidofovir EC50): 422 | EC50 (HCMV(AD169); Human betaherpesvirus 5, AD169, MRC5, MRC-5): 0.9 nM | Enhanced Activity (HHV-6; CMX001 versus cidofovir EC50): 50 | EC50 (HHV-6; HSB2, HSB-2): 4 nM | Enhanced Activity (Adenovirus [1]; CMX001 versus cidofovir EC50): 65 | IC50 (Adenovirus [1]; unidentified adenovirus): 20 nM | EC50 (Adenovirus [1]; unidentified adenovirus, HFF): 20 nM | EC50 (HPV 11; A-431, A431): 17000 nM | Enhanced Activity (HPV 11; CMX001 versus cidofovir EC50): 42 | EC50 (BK Virus; Virus Dilution 1:10): 16 nM | EC50 (BK Virus; Virus Dilution 1:50): 3.5 nM | EC50 (BK Virus; Virus Dilution 1:100): 3.7 nM | reduction of extracellular JCV loads (JCV (Mad-4); 0.6 μM CMX001): approximately 90% | JCV VP1 immunofluorescence (JCV (Mad-4); 1.25 μM CMX001, 7 d.p.i.): significant reduction of JCV VP1 signal | change in the JCV load over 7 days (JCV (Mad-4); 5 μM CMX001): less than 1 log | JCV VP1 immunofluorescence (JCV (Mad-4); 5 μM CMX001, 7 d.p.i.): essentially no VP1 positive cells could be observed | extracellular JCV load (JCV (Mad-4); 5 μM CMX001, 7 d.p.i. (day 1: 1.34×10^7; untreated: 5.67×10^10)): 8.85×10^7 geq/ml | IC90 (JCV (Mad-4); JC polyomavirus, 120 h, COS-7, 5 d.p.i., viral input subtracted, read-out: IC-90, extracellular JCV load): 600 nM | EC50 (JCV (Mad-4); JC polyomavirus, 120 h, COS-7, 5 days): 150 nM | EC50 (HSV-1; Human alphaherpesvirus 1, ACV resistant strain B-2006): 10 ± 0.7 nM | EC50 (HSV-1; Human alphaherpesvirus 1, ACV resistant strain DM2.1): 8 nM | EC50 (HSV-1; Human alphaherpesvirus 1, ACV resistant strain PAAr5): 10 nM | EC50 (HSV-1; Human alphaherpesvirus 1, F (wild type), Table 9): 15 ± 6 nM | EC50 (HSV-1; Human alphaherpesvirus 1, SC16, ACV resistant strain SC16-S1): 10 nM | EC50 (HSV-1; Human alphaherpesvirus 1, read-out: EC50 range, panel of wild-type and ACV-resistant isolates of HSV-1 and HSV-2): 8 to 30 nM | EC50 (HSV-1; Human alphaherpesvirus 1, strain E-377): 60 ± 30 nM | EC50 (HSV-1; Human alphaherpesvirus 1, strain F): 10 ± 5 nM | EC50 (HSV-1; Human alphaherpesvirus 1, strain HL-3): 10 ± 10 nM | cytotoxicity at 1 μM ([2]; JCV-infected SVG cells (established infection), 1 μM, JCV-infected cells, established infection): 40% | cytotoxicity at 4 days, 0.01 μM ([2]; SVG cells, 0.01 μM, 4 days, read-out: reduction in cell viability (alamar blue)): 6% | cytotoxicity at 4 days, 0.1 μM ([2]; SVG cells, 0.1 μM, 4 days, read-out: reduction in cell viability (alamar blue)): 11% | cytotoxicity at 4 days, 1 μM ([2]; SVG cells, 1 μM, 4 days, read-out: reduction in cell viability (alamar blue)): 32% | cytotoxicity at 1 μM ([2]; non-infected SVG cells, 1 μM, non-infected cells): 15% | reduction in total cell number (hematoxylin) (SVG cells; 0.01 μM): did not result in significant reduction | reduction in total cell number (hematoxylin) (SVG cells; 0.03 μM): 14% | reduction in total cell number (hematoxylin) (SVG cells; 0.07 μM): 39% | reduction in total cell number (hematoxylin) (SVG cells; 0.1 μM): 46% | cell viability (MTS) (SVG cells; 0.01 or 0.1 μM, non-infected or JCV-infected (established infection) SVG cells): did not alter cell viability | concentrations at which cytotoxicity was observed (SVG cells; SVG cells): ≥ 1000 nM | availability and distribution [3]: orally available and widely distributed | AUC(0-t) [4, 8]: 2610 ng·h/mL | Cmax [4, 8]: 350 ng/mL | Tmax [4, 8]: 3 h | half-life [4, 8]: 24 h | AUC(0-inf) ([4]; human, oral, CMX001 2 mg/kg single dose, plasma, Mean, read-out: AUCinf_obs): 2650 ng·h/mL | tolerability ([4]; single and multiple doses): well tolerated | adverse events ([5]; 40 mg): no serious adverse events | exposure as indicated by AUC ([5]; 40 mg): unchanged | reduction of plasma Cmax by a high fat meal ([5]; 40 mg tablets): approximately 40% | delay of Tmax, tablet versus liquid formulation ([5]; 40 mg, fasted): ~1 h | WBC (3) ([6]; value on day one of CMX001 treatment): 3.6 (3) and 5.2 (3) and 2.17 (3) | WBC (4) ([6]; value on last day of CMX001 treatment): 5.4 (4) and 4.3 (4) | IC50 (Adenovirus [7]; Ad14 (three isolates)): 41 nM and 36 nM | IC50 (Adenovirus [7]; unidentified adenovirus, Ad3): 48 nM | IC50 (Adenovirus [7]; unidentified adenovirus, Ad3 ATCC): 34 nM | IC50 (Adenovirus [7]; unidentified adenovirus, Ad4): 32 nM | IC50 (Adenovirus [7]; unidentified adenovirus, Ad4 ATCC): 20 nM | IC50 (Adenovirus [7]; unidentified adenovirus, Ad5 ATCC): 46 nM | IC50 (Adenovirus [7]; unidentified adenovirus, Ad7): 34 nM | IC50 (Adenovirus [7]; unidentified adenovirus, Ad7 ATCC): 65 nM | IC50 (Adenovirus [7]; unidentified adenovirus, Ad14 (three isolates)): 34 nM | IC50 (Adenovirus [7]; unidentified adenovirus, Ad14 ATCC): 22 nM | IC50 (Adenovirus [7]; unidentified adenovirus, Ad21): 44 nM
